Data taken from PubChem BioAssay AID330 (DTP/NCI, 2004).
Where “and” joins values, the source holds several entries; their conditions need not be identical. Equal values may be shown once. Toxic doses and inconclusive results are not listed. Square brackets hold non-standard residues; d marks the D form. Peptide text beside a SMILES is read from it. ξ: configuration not given here. ξPhe(4-N(CH2CH2Cl)2) = NC(Cc1ccc(N(CCCl)CCCl)cc1)C(=O)O

Test system: P388 leukemia ip, CD2F1 mice, survival T/C
Assay: NCI In Vivo Anticancer Drug Screen. Data for tumor model P388 Leukemia (intraperitoneal) in CD2F1 (CDF1) mice
Conditions: endpoint: median survival time, higher = longer survival
In short: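 Mice carrying the transplanted tumor received test compound or vehicle. Survival was recorded in each group, and the value is the treated-group measurement divided by that of the vehicle-treated control group.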

[1] = dose: 100.0 mg/kg/injection, schedule: Q04DX002 (ip), vehicle: saline
[2] = dose: 200.0 mg/kg/injection, schedule: Q04DX002 (ip), vehicle: saline
[3] = dose: 400.0 mg/kg/injection, schedule: Q04DX002 (ip), vehicle: saline
[4] = dose: 50.0 mg/kg/injection, schedule: Q01DX009 (ip), vehicle: saline with Tween-80
[5] = dose: 100.0 mg/kg/injection, schedule: Q01DX009 (ip), vehicle: saline with Tween-80
[6] = dose: 50.0 mg/kg/injection, schedule: Q01DX005 (ip), vehicle: saline with Tween-80
[7] = dose: 100.0 mg/kg/injection, schedule: Q01DX005 (ip), vehicle: saline with Tween-80
[8] = dose: 200.0 mg/kg/injection, schedule: Q01DX005 (ip), vehicle: saline with Tween-80
[9] = dose: 60.0 mg/kg/injection, schedule: Q01DX005 (ip), vehicle: saline with Tween-80
[10] = dose: 120.0 mg/kg/injection, schedule: Q01DX005 (ip), vehicle: saline with Tween-80
[11] = dose: 240.0 mg/kg/injection, schedule: Q01DX005 (ip), vehicle: saline with Tween-80
[12] = dose: 50.0 mg/kg/injection, schedule: Q01DX009 (ip), vehicle: saline
[13] = dose: 100.0 mg/kg/injection, schedule: Q01DX009 (ip), vehicle: saline
[14] = dose: 200.0 mg/kg/injection, schedule: Q01DX009 (ip), vehicle: saline
[15] = dose: 50.0 mg/kg/injection, schedule: Q01DX009 (ip), vehicle: Klucel (hydroxypropylcellulose) (HPC)
[16] = dose: 100.0 mg/kg/injection, schedule: Q01DX009 (ip), vehicle: Klucel (hydroxypropylcellulose) (HPC)
[17] = dose: 200.0 mg/kg/injection, schedule: Q01DX009 (ip), vehicle: Klucel (hydroxypropylcellulose) (HPC)

## N[C@@H](C[C@H]1CCC(=O)[C@@H]2O[C@H]12)C(=O)O
[1]
  T/C: 100 % of control
[2]
  T/C: 98 % of control
[3]
  T/C: 108 % of control
dose: 600.0 mg/kg/injection, schedule: Q04DX002 (ip), vehicle: saline
  T/C: 112 % of control

## COC1(OC)OC(c2ccccc2)=C(c2ccccc2)C(C#N)(C#N)C1(OC)OC
dose: 60.0 mg/kg/injection, schedule: Q01DX005 (ip), vehicle: Klucel (hydroxypropylcellulose) (HPC)
  T/C: 91 % of control
dose: 120.0 mg/kg/injection, schedule: Q01DX005 (ip), vehicle: Klucel (hydroxypropylcellulose) (HPC)
  T/C: 88 % of control
dose: 240.0 mg/kg/injection, schedule: Q01DX005 (ip), vehicle: Klucel (hydroxypropylcellulose) (HPC)
  T/C: 94 % of control

## CC(=O)c1nc(-c2ccccc2)oc1-c1ccccc1
[1]
  T/C: 96 % of control
[2]
  T/C: 95 % of control
[3]
  T/C: 99 % of control

## NNC(=O)c1ccccc1O
[4]
  T/C: 100 % of control
[5]
  T/C: 100 % of control

## COc1ccc2nccc(/C=C/c3ccnc4ccc(OC)cc34)c2c1
[6]
  T/C: 103 % of control
[7]
  T/C: 103 % of control
[8]
  T/C: 100 % of control

## COC(=O)c1cc(-c2ccc(Cl)c(Cl)c2)[nH]c(=O)c1C#N
[9]
  T/C: 100 % of control
[10]
  T/C: 103 % of control
[11]
  T/C: 94 % of control

## C=CCN1Cc2ccccc2-c2ccccc2C1
[12]
  T/C: 94 % of control
[13]
  T/C: 106 % of control
[14]
  T/C: 108 % of control

## Nc1ccccc1SC1CCCCC1O (stereo not given)
dose: 25.0 mg/kg/injection, schedule: Q01DX009 (ip), vehicle: saline
  T/C: 101 % of control
[12]
  T/C: 97 % of control
[13]
  T/C: 97 % of control
[14]
  T/C: 102 % of control

## CC(=O)OC[C@]12CCC(C)=CC1O[C@@H]1C(OC(C)=O)[C@@H](O)[C@@]2(C)[C@]12CO2 (stereo not given in full)
dose: 0.5 mg/kg/injection, schedule: Q01DX009 (ip), vehicle: saline
  T/C: 116 % of control
dose: 4.0 mg/kg/injection, schedule: Q01DX009 (ip), vehicle: saline
  T/C: 165 % of control

## NC(CO)C(=O)NC(CCC(=O)O)C(=O)NC(CO)C(=O)NC(CCC(=O)O)C(=O)NC(Cc1ccc(N(CCCl)CCCl)cc1)C(=O)O (stereo not given) (H-SESE[ξPhe(4-N(CH2CH2Cl)2)]-OH; configuration not given here)
dose: 5.0 mg/kg/injection, schedule: Q04DX003 (ip), vehicle: water
  T/C: 96 % of control
dose: 10.0 mg/kg/injection, schedule: Q04DX003 (ip), vehicle: water
  T/C: 98 % of control
dose: 20.0 mg/kg/injection, schedule: Q04DX003 (ip), vehicle: water
  T/C: 101 % of control
dose: 40.0 mg/kg/injection, schedule: Q04DX003 (ip), vehicle: water
  T/C: 102 % of control and 111 % of control
dose: 80.0 mg/kg/injection, schedule: Q04DX003 (ip), vehicle: water
  T/C: 117 % of control

## COC(=O)c1cc2c(nn1)C(=O)Nc1ccccc1C2(C)C
[9]
  T/C: 100 % of control
[10]
  T/C: 105 % of control
[11]
  T/C: 96 % of control

## Clc1ccc(NC2=NCCS2)cc1Cl
[15]
  T/C: 103 % of control
[16]
  T/C: 92 % of control
[17]
  T/C: 101 % of control

## COc1cc(CO)c(CO)cc1OC
dose: 0.75 mg/kg/injection, schedule: Q01DX005 (ip), vehicle: saline
  T/C: 93 % of control
dose: 1.5 mg/kg/injection, schedule: Q01DX005 (ip), vehicle: saline
  T/C: 95 % of control
dose: 3.0 mg/kg/injection, schedule: Q01DX005 (ip), vehicle: saline
  T/C: 93 % of control
dose: 3.12 mg/kg/injection, schedule: Q01DX005 (ip), vehicle: saline
  T/C: 98 % of control

## Cc1cc(N)c(C)c(Br)c1C
[4]
  T/C: 106 % of control
[5]
  T/C: 99 % of control
dose: 200.0 mg/kg/injection, schedule: Q01DX009 (ip), vehicle: saline with Tween-80
  T/C: 106 % of control

## CC(=O)C(N)=O
dose: 50.0 mg/kg/injection, schedule: Q01DX005 (ip), vehicle: saline
  T/C: 98 % of control
dose: 100.0 mg/kg/injection, schedule: Q01DX005 (ip), vehicle: saline
  T/C: 100 % of control
dose: 200.0 mg/kg/injection, schedule: Q01DX005 (ip), vehicle: saline
  T/C: 101 % of control

## O=C1C(=O)c2ccccc2C(O)=C1Sc1ccc2ccccc2c1
dose: 3.13 mg/kg/injection, schedule: Q01DX009 (ip), vehicle: saline with Tween-80
  T/C: 100 % of control
dose: 6.25 mg/kg/injection, schedule: Q01DX009 (ip), vehicle: saline with Tween-80
  T/C: 99 % of control
dose: 12.5 mg/kg/injection, schedule: Q01DX009 (ip), vehicle: saline with Tween-80
  T/C: 95 % of control

## CCO/C=C1\SC(=S)N(c2ccccc2C)C1=O
dose: 2.5 mg/kg/injection, schedule: Q03HX024 (ip), vehicle: saline with Tween-80
  T/C: 105 % of control
dose: 5.0 mg/kg/injection, schedule: Q03HX024 (ip), vehicle: saline with Tween-80
  T/C: 107 % of control
dose: 10.0 mg/kg/injection, schedule: Q03HX024 (ip), vehicle: saline with Tween-80
  T/C: 117 % of control
dose: 14.6 mg/kg/injection, schedule: Q01DX009 (ip), vehicle: saline with Tween-80
  T/C: 105 % of control
dose: 22.0 mg/kg/injection, schedule: Q01DX009 (ip), vehicle: saline with Tween-80
  T/C: 105 % of control
[5]
  T/C: 160 % of control
dose: 100.0 mg/kg/injection, schedule: Q04DX003 (ip), vehicle: saline with Tween-80
  T/C: 116 % of control
dose: 200.0 mg/kg/injection, schedule: Q04DX003 (ip), vehicle: saline with Tween-80
  T/C: 120 % of control

## Fc1ccc2[nH]cc(C3CCCN4CCCCC34)c2c1 (stereo not given)
dose: 12.5 mg/kg/injection, schedule: Q01DX001 (ip), vehicle: saline with Tween-80
  T/C: 95 % of control
dose: 25.0 mg/kg/injection, schedule: Q01DX001 (ip), vehicle: saline with Tween-80
  T/C: 101 % of control
dose: 50.0 mg/kg/injection, schedule: Q01DX001 (ip), vehicle: saline with Tween-80
  T/C: 102 % of control
dose: 100.0 mg/kg/injection, schedule: Q01DX001 (ip), vehicle: saline with Tween-80
  T/C: 101 % of control

## C/C(=N\N=C(\N)N1CCOCC1)c1ccc2c(c1)Cc1c(/C(C)=N/N=C(\N)N3CCOCC3)cccc1-2
dose: 12.5 mg/kg/injection, schedule: Q04DX002 (ip), vehicle: saline with Tween-80
  T/C: 102 % of control
dose: 25.0 mg/kg/injection, schedule: Q04DX002 (ip), vehicle: saline with Tween-80
  T/C: 97 % of control
dose: 50.0 mg/kg/injection, schedule: Q04DX002 (ip), vehicle: saline with Tween-80
  T/C: 103 % of control

## OC(c1cc(-c2ccc(Cl)cc2)nc2ccccc12)C1CCCCN1 (stereo not given)
[6]
  T/C: 105 % of control
[7]
  T/C: 113 % of control

## CC1=CC(=C2C=C(C)C(=O)C(C)=C2)C=C(C)C1=O
[13]
  T/C: 97 % of control and 98 % of control
[14]
  T/C: 91 % of control and 95 % of control
dose: 400.0 mg/kg/injection, schedule: Q01DX009 (ip), vehicle: saline
  T/C: 93 % of control and 94 % of control

## C/C=C/CC1(CC)C(=O)NC(=S)NC1=O
[4]
  T/C: 100 % of control

## NNS(=O)(=O)c1cccc(S(=O)(=O)NN)c1
dose: 12.5 mg/kg/injection, schedule: Q01DX009 (ip), vehicle: other
  T/C: 96 % of control
dose: 25.0 mg/kg/injection, schedule: Q01DX009 (ip), vehicle: other
  T/C: 96 % of control
dose: 50.0 mg/kg/injection, schedule: Q01DX009 (ip), vehicle: other
  T/C: 99 % of control

## COc1cccc2c1C(=O)c1c(O)c3c(c(O)c1C2=O)C[C@@](O)(C(C)O)C[C@@H]3OC1CC(NC(=O)C(F)(F)F)C(O)C(C)O1 (stereo not given in full)
dose: 1.56 mg/kg/injection, schedule: Q01DX009 (ip), vehicle: water
  T/C: 118 % of control
dose: 6.25 mg/kg/injection, schedule: Q01DX009 (ip), vehicle: water
  T/C: 150 % of control
dose: 12.5 mg/kg/injection, schedule: Q01DX009 (ip), vehicle: water
  T/C: 156 % of control and 169 % of control
dose: 25.0 mg/kg/injection, schedule: Q01DX009 (ip), vehicle: water
  T/C: 181 % of control and 189 % of control

## CCCCCCCC(=O)C(=O)c1ccc(O)c(C)c1O
[15]
  T/C: 109 % of control
[16]
  T/C: 102 % of control
[17]
  T/C: 106 % of control

## CN1C(=O)CNC(=O)c2ccc(Cl)cc21
[6]
  T/C: 108 % of control
[7]
  T/C: 90 % of control
[8]
  T/C: 115 % of control
